Data as given in PMC6961122 (Bioorganic & Medicinal Chemistry, 2020).
Where two headings read alike, the source gives them in different places.

Tests used:
[1] = test system: U87 cells; experiment: Cell viability assay (PrestoBlue, 5 d) in U87 glioma cells; type: cell-based; conditions: library screen, 5 d treatment, mean of three independent experiments in triplicates, read-out: EC50 U87 ± SEM
Method: (§1) The antiproliferative activity of a total of 100 compounds was tested against U87 and T98 glioma cell lines, using TMZ[3] and the Topoisomerase I inhibitor SN-38[18] as positive controls. Cells were treated with the library members for 5 d at three different concentrations (3, 30 and 300 µM) and cell viability determined using the PrestoBlue reagent. Half-maximal effective concentration (EC50) values were calculated from the corresponding dose-response curves and plotted in Fig. 2a as a heatmap to facilitate data analysis, with black meaning no activity and dark to light green to yellow transitions indicating decreasing EC50 values (=increasing potencies). Table 1 of the Suppl. Data contains the corresponding EC50 values ± SEM.
(§2) INK128 and SN-38 were used as positive controls. […] Structurally, these derivatives differed in the size of the alkyl group of the N1 position and the presence or absence of an oxygen atom in that moiety (see Suppl. Data).
(§3) U87 and T98 cells (ATCC) were cultured in DMEM (Gibco), supplemented with 10% (v/v) FBS (Gibco) and 2 mM L-Glutamine (Gibco) in a standard incubator (95% humidity, 5% CO2), and subcultured twice per week through trypsinization. G317 patient-derived glioma cells were established by the Glioma Cellular Genetics Resource (gcgr.org.uk) funded by Cancer Research UK. Ethics approval for use of patient-derived cells and early access confirmation to reagents from the Glioma Cellular Genetics Resource assured that all ethical issues according to UK legislation are fulfilled. G317 were cultured in DMEM/HAMS-F12 (Sigma) supplemented with 1.5 g L^−1 D-(+)-Glucose (Sigma), MEM non-essential aminoacids (Gibco), 0.015% (w/v) Penicillin-Streptomycin (Gibco), 0.012% (w/v) BSA (Gibco), 0.1 mM β-mercaptoethanol (Gibco), B27 (Gibco) and N2 supplements (Gibco). Cells were detached using accutase solution (Sigma) and subcultured once per week. Before adding to the cells, medium was supplemented with 10 ng ml^−1 mouse EGF (Preprotech), 10 ng ml^−1 human FGF (Preprotech), and 1 µg ml^−1 Laminin (Sigma).
(§4) 1 × 10^3 U87 cells/well, 5 × 10^2 T98 cells/well, 1 × 10^4 G317 cells/well, 1 × 10^4 HBVP cells/well and 1 × 10^4 bEnd3 cells/well were seeded in 96-well plates. After 48 h in culture, cells were treated with the inhibitors for 5 d. For GI50 determination, the viability of a triplicate sample of each experiment before treatment was measured with the PrestoBlue Reagent (Invitrogen), to establish a basepoint 0% of growth. […] ZIP Synergy scores were obtained with Synergy finder.[22] Viability percentage, EC50 and GI50 values were obtained using GraphPad Prism version 8.0.0 for Windows, GraphPad Software, San Diego, California USA, www.graphpad.com.

[2] = test system: T98 cells; experiment: Cell viability assay (PrestoBlue, 5 d) in T98 glioma cells; type: cell-based; conditions: library screen, 5 d treatment, mean of three independent experiments in triplicates, read-out: EC50 T98 ± SEM
Method: as §1, §2, §3, §4

[3] = test system: G317 patient-derived glioma cells; experiment: Growth inhibition (GI50, PrestoBlue, 5 d) in patient-derived glioma cells G317; type: cell-based, human; conditions: 5 d treatment, growth related to t=0 and DMSO, extrapolated from sigmoidal dose-response curve; for GI50: read-out: GI50 (50% of growth inhibition) in G317
Method: Cells were treated with each inhibitor at concentrations ranging from 1 to 10,000 nM and PrestoBlue assay used at day 5 to detect viability. […] Data are means ± SEM of 3 independent experiments in triplicates.
as §3, §4
Table S2 . GI 50 values (nM) calculated for eCF309 , eCF311 , eCF312 , eCF324 , eCF325 and controls
Cells were treated with 10, 3, 1 µM,
300, 100, 30, 10, 3, 1, 0 nM of each inhibitor during 5 d. Cell growth (PrestoBlue) was related to t=0 (before
drug treatment), and GI 50 values were extrapolated from their corresponding sigmoidal dose-response curve

[4] = test system: U87 cells; experiment: Cell viability assay (PrestoBlue, 5 d) in U87 glioma cells; type: cell-based; conditions: PrestoBlue day 5; for activity (EC50) of novel compounds in U87, in words: 1 to 30,000 nM, Fig. 7
[5] = test system: T98 cells; experiment: Cell viability assay (PrestoBlue, 5 d) in T98 glioma cells; type: cell-based; conditions: PrestoBlue day 5; for activity (EC50) of novel compounds in T98, in words: 1 to 30,000 nM, Fig. 7
[6] = test system: mTOR; design: method as in earlier work; conditions: recombinant kinase; previously obtained kinase profiling data; cited from earlier work
[7] = test system: PI3Kα; design: method as in earlier work; conditions: recombinant kinase; previously obtained kinase profiling data; cited from earlier work
[8] = Homo sapiens, Glioma cell, 120 h
[9] = repeat for most potent hits, 7-point half-log dose-response 1 to 1,000 nM

Compound: Nc1nc2cc(-c3nn(CC4CCCO4)c4ncnc(N)c34)ccc2o1 (stereo not shown) [eCF325]
- EC50 ([1]; Homo sapiens, U-87 MG, 120 h): 0.138 ± 0.023 µM
- EC50 ([2]; Homo sapiens, T98, 120 h): 0.105 ± 0.023 µM
- GI50 [3, 8]: 0.0464 µM

Compound: COC(Cn1nc(-c2ccc3oc(N)nc3c2)c2c(N)ncnc21)OC [eCF312]
- EC50 ([1]; Homo sapiens, U-87 MG, 120 h): 0.116 ± 0.021 µM
- EC50 ([2]; Homo sapiens, T98, 120 h): 0.08 ± 0.021 µM
- GI50 [3, 8]: 0.0369 µM

Compound: CNc1ncc2c(-c3ccc4oc(N)nc4c3)nn(CC3CCCC3)c2n1 [eDB001]
- activity (EC50) of novel compounds in U87, in words [4]: high activity
- activity (EC50) of novel compounds in T98, in words [5]: high activity

Compound: 2-(1H-Indazol-4-yl)-6-(4-methanesulfonyl-piperazin-1-ylmethyl)-4-morpholin-4-yl-thieno[3,2-d]pyrimidine [GDC0941, reference compound]
- activity (EC50) in U87 cells, in words ([4]; 1 to 1,000 nM, Fig. 3): low µM activity
- activity (EC50) against T98, in words ([5]; 1 to 1,000 nM, Fig. 3): sub-µM activity

Compound: CCc1c2c(nc3ccc(O)cc13)-c1cc3c(c(=O)n1C2)COC(=O)[C@]3(O)CC [SN-38, reference compound]
- GI50 [3, 8]: 0.0129 µM

Compound: CCOC(Cn1nc(-c2ccc3oc(N)nc3c2)c2c(N)ncnc21)OCC [eCF309]
- EC50 ([1]; Homo sapiens, U-87 MG, 120 h): 0.129 ± 0.019 µM
- EC50 ([2]; Homo sapiens, T98, 120 h): 0.128 ± 0.022 µM
- GI50 [3]: 0.0649 µM
- GI50 [3, 8]: 0.065 µM
- IC50 [6]: 0.015 µM
- IC50 [7]: 0.981 µM

Compound: Nc1nc2cc(-c3nn(C[C@@H]4CCCO4)c4ncnc(N)c34)ccc2o1 [eCF334]
- EC50 ([1]; Homo sapiens, U-87 MG, 120 h): 0.138 ± 0.013 µM
- EC50 ([2]; Homo sapiens, T98, 120 h): 0.1 ± 0.018 µM
- GI50 (50% of growth inhibition) in G317 [3]: identical dose response curves to eCF325
- EC50 in U87 cells [4, 9]: identical dose response curves to that of eCF325
- EC50 in T98 cells [5, 9]: identical dose response curves to that of eCF325

Compound: Nc1ncnc2c1c(-c1cnc3[nH]ccc3c1)nn2CC1CCCC1 [eDB002]
- activity (EC50) of novel compounds in U87, in words [4]: high activity
- activity (EC50) of novel compounds in T98, in words [5]: high activity

Compound: COc1ccc(-c2nn(CCN3CCC(CN(C)C)CC3)c3ncnc(N)c23)cc1OC [eCF224]
- EC50 [1]: > 30 µM
- EC50 [2]: > 30 µM

Compound: COc1cc(-c2nn(CCN3CCC(N(C)C)CC3)c3ncnc(N)c23)ccc1NC(=O)NC(C)(C)C [eCF537]
- EC50 [1]: > 30 µM
- EC50 [2]: 17.6 ± 3.24 µM

Compound: CNc1ncc2c(-c3ccc(N4CCNCC4)nc3)nn(CC3CCCC3)c2n1 [eSM107]
- EC50 [1]: 3.33 ± 0.166 µM
- EC50 [2]: 2.42 ± 0.504 µM

Compound: Nc1nc2cc(-c3nn(CC4OCCO4)c4ncnc(N)c34)ccc2o1 [eCF311]
- EC50 ([1]; Homo sapiens, U-87 MG, 120 h): 0.392 ± 0.058 µM
- EC50 ([2]; Homo sapiens, T98, 120 h): 0.323 ± 0.087 µM
- GI50 [3, 8]: 0.147 µM

Compound: CCNc1ncc2c(-c3ccc(N4CCNCC4)nc3)nn(CC3OCCO3)c2n1 [eSM133]
- EC50 [1]: > 30 µM
- EC50 [2]: 15.6 ± 2.75 µM

Compound: COc1cc(-c2nn(CCN3CCCC(N(C)C)C3)c3ncnc(N)c23)ccc1NC(=O)OC(C)(C)C (stereo not shown) [eCF603]
- EC50 [1]: > 30 µM
- EC50 [2]: > 30 µM

Compound: CCOC(Cn1nc(-c2ccoc2)c2c(N)ncnc21)OCC [eCF206]
- EC50 [1]: > 30 µM
- EC50 [2]: > 30 µM

Compound: Nc1ncnc2c1c(-c1ccc(-c3ccccc3)cc1)nn2CC1CCCC1 [eSM212]
- EC50 [1]: > 30 µM
- EC50 [2]: 22.8 ± 3.13 µM

Compound: CNc1ncc2c(-c3ccc(OC)cc3)nn(CC3OCCO3)c2n1 [eSM110]
- EC50 [1]: > 30 µM
- EC50 [2]: > 30 µM

Compound: CNc1ncc2c(-c3ccc(N4CCNCC4)nc3)nn(Cc3cn(-c4ccc(Cl)cc4)nn3)c2n1 [eSM143]
- EC50 [1]: 3.06 ± 0.833 µM
- EC50 [2]: 3.02 ± 0.568 µM

Compound: COc1cc(-c2nn(CCN3CCC(N(C)C)CC3)c3ncnc(N)c23)ccc1NC(=O)Oc1ccccc1 [eCF535]
- EC50 [1]: > 30 µM
- EC50 [2]: 16.7 ± 2.8 µM

Compound: CN(C)CC1CCN(CCn2nc(C#Cc3ccccc3)c3c(N)ncnc32)CC1 [eCF230]
- EC50 [1]: 18.2 ± 1.2 µM
- EC50 [2]: 13.7 ± 1.84 µM
